A value given as a limit tells only on which side of the number the result lay.

The source of these data is patent US20260144784A1, “COMPOSITION FOR PREVENTING OR TREATING MELAS SYNDROME, CONTAINING ISOPQUINOLINE DERIVATIVE AS ACTIVE INGREDIENT” (ALTMEDICAL CO., LTD., priority 2022, published 2026).

The subject of series [1] is mitochondrial membrane potential. As to the kind of experiment: mitochondrial membrane potential, TMRM assay. The format is cell-based. The conditions noted are these: CD1-012 10 μM or 15 μM, CCCP 10 μM, 24 hours. How it is done: (§1) It was confirmed whether the isoquinoline derivative according to the present invention induces mitochondrial dysfunction, similar to CCCP. To this end, the CD1-012 (10 μM or 15 μM) and CCCP (10 μM) were treated for 24 hours, and the mitochondrial membrane potential and mitochondrial reactive oxygen species (ROS) levels in each sample were analyzed. Mitochondrial membrane potential was analyzed using the TMRM (tetramethylrhodamine methyl ester) assay, and mitochondrial ROS levels were analyzed using the MitoSOX assay.

The test system of series [2] is mitochondrial reactive oxygen species (ROS). The experiment in a line: mitochondrial reactive oxygen species, MitoSOX assay. The format is cell-based. The note with it: CD1-012 10 μM or 15 μM, CCCP 10 μM, 24 hours. The method, then: as §1
The subject of series [3] is PINK1 knockdown cell line (shPINK1). The experiment in a line: mitophagy activity by FACS in PINK1 knockdown BEAS-2B cell line. In kind it is cell-based, human. The note with it: CCCP 10 μM, CD1-012 15 μM, 18 hours. The method, then:
In this example, it was confirmed whether the mitophagy activation function of the isoquinoline derivative according to the present invention is dependent on the PINK1-Parkin pathway. To this end, after a BEAS-2B cell line, in which PINK1 was knocked down using short hairpin RNA (shRNA), was treated with CCCP (10 μM) of Comparative Example 1 or CD1-012 (15 μM) for 18 hours, the mitophagy activity of each sample was analyzed using flow cytometry (FACS).

The subject of series [4] is BEAS-2B cell line. As to the kind of experiment: autophagy activity, Keima fluorescent protein in BEAS-2B cells (confocal microscope). The format is cell-based, human. The note with it: BEAS-2B Keima; 15 μM 18 hours, FIG. 4B. How it is done:
(§2) It was confirmed whether CD1-012 synthesized in Example 1 specifically increases only mitophagy activity. To this end, the BEAS-2B cell line expressing mt-Keima was treated with CD1-012 (15 μM) or Comparative Example 1 (CCCP, 10 μM) for 18 hours, and mitophagy activity was analyzed using a confocal microscope. Additionally, to measure autophagy activity, the BEAS-2B cell line expressing Keima fluorescent protein was incubated in Hanks' balanced salt solution (HBSS) for 3 hours to induce a starvation condition (starv.), and the results were compared with samples treated with CD1-012 (15 μM) for 18 hours using a confocal microscope.

Series [5] has as its system 143B MELAS cell line. As to the kind of experiment: ATP synthesis in 143B MELAS cell line. In kind it is cell-based. The note with it: 40 μM for 24 hours, measured 2 days later. The method, then:
As confirmed through the previous examples, the compound according to the present invention can promote mitophagy in MELAS syndrome cells, and in the present example, it was confirmed whether the compound can improve mitochondrial dysfunction in MELAS syndrome cells. For this purpose, CD1-012 (40 μM) was treated in the 143B MELAS cell line for 24 hours, and ATP synthesis was measured 2 days later.

Series [6] has as its system 143B MELAS cell line. As to the kind of experiment: mitochondrial protein levels by Western blot in MELAS cell line. The conditions noted are these: FIG. 9C. In kind it is cell-based. From the text:
(§3) In the previous example, it was confirmed that mitochondrial dysfunction occurs in the MELAS syndrome cell line, and in the present example, it was confirmed whether the compound according to the present invention can promote mitophagy in the MELAS syndrome cell line. In order to verify the mitophagy activity-promoting effect of the CD1-012 compound in the 143B MELAS cell line, a mitophagy quantification method using the mt-Keima fluorescent protein, which enables quantitative measurement of mitophagy activity in live cells, was used (2015 Mol Cell, 60 (4): 685-696.doi: 10.1016/j.molcel.2015.10.009:2018 J Vis Exp. (138): 58099 doi: 10.3791/58099.). Specifically, mt-Keima fluorescent protein was expressed in the 143B MELAS cell line, and after treatment with CD1-012 at various concentrations, mitophagy activity was measured using a mitophagy activity measurement method using a fluorescence-activated cell sorter (FACS) or a confocal microscope. […] Additionally, as a result of investigating the reduction of mitochondrial proteins associated with increased mitophagy activity by Western blot, it was confirmed that the levels of SDHA and COX4 proteins decreased when treated with CD1-012 at concentrations of 10 μM or higher (FIG. 9C).

Series [7] relates to MELAS syndrome patient-derived cells. As to the kind of experiment: mitochondrial protein levels (SDHA, SDHB) by Western blot in MELAS syndrome patient-derived cells. The format is cell-based, human. The conditions noted are these: 24 hours. The method, then: As confirmed in the previous example, mitochondrial dysfunction is observed in MELAS syndrome patient-derived cells, and in the present example, it was confirmed whether the compound according to the present invention can promote mitophagy activity in MELAS syndrome patient-derived cells. CD1-012 was treated in MELAS syndrome patient-derived cells at concentrations of 20 μM or 40 μM for 24 hours, and the levels of mitochondrial proteins SDHA and SDHB were analyzed by Western blot.
In general terms: In western blotting, separated proteins are transferred to a membrane and probed.

Series [8] relates to BEAS-2B cell line. As to the kind of experiment: mitophagy activity, mt-Keima fluorescent protein in BEAS-2B cells (FACS, confocal microscope, mito-YFP). In kind it is cell-based, human. The note with it: BEAS-2B mt-Keima. The method, then:
To analyze the mitophagy-promoting activity effect of the CD1-012 synthesized in the Example 1, the BEAS-2B cell line, which is a human normal lung cell line, was induced to express the mt-Keima fluorescent protein. Following this, the CD1-012 (15 μM) and the compound of Comparative Example 1, CCCP (10 μM), were treated for 24 hours. After the treatment, the mitophagy activity of each sample was measured, and the results were represented in FIGS. 1A to 1C.
Specifically, FIG. 1A represents the analysis results using flow cytometry (FACS) (treatment of CD1-012 at 15 μM for 24 hours), FIG. 1B represents the analysis results using a confocal microscope (treatment of CD1-012 at 15 μM for 18 hours), and FIG. 1C represents the measurement results of the quantitative changes in the mitochondria using a fluorescent protein, mito-YFP, which includes a targeting sequence to transport protein to the mitochondria (treatment of CD1-012 at 20 μM for 24 hours).
It was confirmed whether CD1-012 synthesized in Example 1 promotes mitophagy activity in a concentration- and time-dependent manner. To this end, the CD1-012 was treated at various concentrations or at a fixed concentration (15 μM) for different treatment durations in the BEAS-2B cell line expressing mt-Keima, and mitophagy activity was measured using a flow cytometer.
as §2
To this end, the human normal lung cell line BEAS-2B, expressing mt-Keima fluorescent protein, was treated with CD1-012, Comparative Example 2 (palmatine), or Comparative Example 3 (berberine) at various concentrations, and the mitophagy-inducing activity of each sample was compared.

Series [9] deals with MELAS syndrome patient-derived cells. The experiment in a line: ATP levels in MELAS syndrome patient-derived cells. In kind it is cell-based, human. The conditions noted are these: 40 μM for 24 hours, measured 2 days later, untreated 76%. How it is done:
In this example, it was confirmed whether the compound according to the present invention can improve mitochondrial dysfunction in MELAS syndrome patient-derived cells. CD1-012 was treated in MELAS syndrome patient-derived cells at a concentration of 40 μM for 24 hours, and ATP levels were measured 2 days later. As a result, it was confirmed that the ATP levels in MELAS syndrome patient-derived cells, which had decreased to 76% of those in normal cells, were restored to 95% of normal levels by CD1-012 treatment (FIG. 13).

A further series deals with SH-SYSY cell line. The experiment in a line: mitophagy activity by flow cytometry in SH-SY5Y cells expressing mt-Keima. The note with it: FACS. In kind it is cell-based, human. How it is done: (§4) It was confirmed whether CD1-012 synthesized in Example 1 increases mitophagy activity in various cell lines. To this end, CD1-012 and Comparative Example 1 (CCCP) were treated in the SH-SYSY cell line, a human neuroblastoma cell line expressing mt-Keima fluorescent protein, and in the HeLa-Parkin cell line, a HeLa cervical cancer cell line expressing Parkin (E3 ligase). Following this treatment, the mitophagy activity of each sample was analyzed using flow cytometry (FACS), and the results are shown in FIGS. 2A to 2B.
For orientation: In flow cytometry, cells or beads pass a laser one at a time.

Series [10] deals with 143B MELAS cell line. As to the kind of experiment: mitophagy activity, mt-Keima in 143B MELAS cell line (FACS, confocal microscope). The note with it: 143B MELAS mt-Keima. The format is cell-based.
From the text: as §3

A further series concerns HeLa-Parkin cell line. As to the kind of experiment: mitophagy activity by flow cytometry in HeLa-Parkin cells. The note with it: FACS. In kind it is cell-based. The method, then:
as §4

With `N#CC(C#N)=NNc1cccc(Cl)c1` [CCCP, Carbonyl Cyanide 3-Chlorophenylhydrazone, reference compound], the mitochondrial membrane potential result in [1] is listed as “significantly reduced”. For the same compound, the “mitochondrial ROS levels” value in series [2] is “significantly increased”. Also, the “mitophagy activation in PINK1 knockdown cell line (shPINK1) compared to control cell line (shNT)” value in series [3] is reported as “significantly decreased”.

For the compound `Oc1cc2c(cc1O)-c1cc3ccc(O)c(O)c3c[n+]1CC2` [CD1-012, 2,3,9,10-Tetrahydroxy-5,6-dihydroisoquinolino [3,2-a]isoquinolin-7-iumbromide], the mitochondrial membrane potential entry in [1] is given as “no decrease in mitochondrial membrane potential was observed”. Further, in the series with BEAS-2B cell line [4], the “autophagy activity compared to the untreated control group” value is “no significant difference in autophagy activity”. In addition, in the series on 143B MELAS cell line [5], the “ATP level relative to the normal cell line levels” value came to 90% and the “increase in ATP levels versus untreated MELAS cells” value was found to be 131%. The compound also returned an ATP levels with 143B MELAS cell line [5] (untreated MELAS cells 39.6 nM) of 51.9 nM. Besides, the “concentration at which the levels of SDHA and COX4 proteins decreased” value in the series with 143B MELAS cell line [6] was at least 10 µM. Also, in series [7] (20 μM), the “mitochondrial protein levels (SDHA, SDHB) compared to the untreated control group” value is “decrease in mitochondrial protein levels”. Besides, in series [7] (40 μM), the “mitochondrial protein expression (SDHA, SDHB) compared to the untreated control group” value was “more pronounced decrease in mitochondrial protein expression”. Also, in the series on BEAS-2B cell line [8] (FACS, 15 μM 24 hours vs CCCP 10 μM), the “mitophagy activity compared with CCCP-treated sample (FIG. 1A)” value was “increased as significantly as”. In addition, in the series with BEAS-2B cell line [8] (FIG. 5), the “concentration at which mitophagy activity reached a level comparable to the maximum of palmatine and berberine” value is reported as 10 UM; the “mitophagy-inducing activity relative to berberine” value is “approximately 8 times”; the “mitophagy-inducing activity relative to palmatine” value is recorded as “approximately 40 times”. The “concentration at which mitophagy activity began to significantly increase compared to untreated control” value in the series on BEAS-2B cell line [8] (flow cytometer, FIG. 3A) was at least 7.5 µM. Also, the “mitophagy-promoting effect compared with CCCP (confocal microscope)” value in the series with BEAS-2B cell line [8] (15 μM 18 hours vs CCCP 10 μM, FIG. 4A) was “mitophagy-promoting effects similar to those observed in the CCCP-treated sample”. Further, the “mitophagy activity compared to the untreated control group (Con)” value in the series on BEAS-2B cell line [8] (15 μM 24 hours (FACS), 15 μM 18 hours (confocal), 20 μM 24 hours (mito-YFP)) is recorded as “significant increase in mitophagy activity”. Besides, in the series with BEAS-2B cell line [8] (15 μM, FIG. 3B), the “treatment time after which mitophagy activity began to significantly increase” value was 3 h and the “treatment time at which mitophagy activity reached its maximum level” value amounted to 18 h. The “concentration dependence of mitophagy activity” value with BEAS-2B cell line [8] (up to the maximum treatment concentration of 17.5 μM) was “continued to increase in a concentration-dependent manner”. In addition, the “ATP levels relative to normal cells” value in series [9] is listed as 95%. For the same compound, the “mitophagy activity compared to the control group (Con)” value in the series on SH-SYSY cell line was “significantly increased mitophagy activity”. The “concentration at which mitophagy activity in the MELAS cell line significantly increased (flow cytometry)” value with 143B MELAS cell line [10] (FIG. 9A) is at least 10 µM. In addition, the “mitophagy activity by confocal microscopy analysis” value in the series on 143B MELAS cell line [10] (20 μM and 40 μM, FIG. 9B) is listed as “increase in mitophagy activity”. In [2], the “mitochondrial ROS levels” value is recorded as “no increase in mitochondrial ROS was detected”. Also, the “mitophagy activation in PINK1 knockdown cell line (shPINK1) compared to control cell line (shNT)” value in series [3] was “did not show a significant difference”. Further, in the series on HeLa-Parkin cell line, the “mitophagy activity compared to the control group (Con)” value is “significantly increased mitophagy activity”.

Regarding `COc1ccc2cc3[n+](cc2c1OC)CCc1cc2c(cc1-3)OCO2` [berberine, Berberine, reference compound], in the series with BEAS-2B cell line [8] (FIG. 5), the “concentration at which mitophagy activity reached its maximum” value was 80 µM.

`COc1cc2c(cc1OC)-c1cc3ccc(OC)c(OC)c3c[n+]1CC2` [palmatine, Palmatine, reference compound]: the “concentration at which mitophagy activity reached its maximum” value with BEAS-2B cell line [8] (FIG. 5) was determined as 400 µM.
